From patent publication US6710078B2, “5-Substituted-3(2H)-furanones useful for inhibition of farnesyl-protein transferase” (Wyeth Holdings Corporation, priority 2001, dated 2004)

How the values were obtained:
[1] = target: T1, FPTase (Homo sapiens, UniProt P49354+P49356); assay: in vitro FTase Inhibition Assay, H-Ras as substrate for farnesylation; assay type: biochemical; settings: H-Ras used as substrate for farnesylation
Procedure: (§1) Enzyme test procedure: FPTase inhibition in vitro assay was performed according to James, G. L., Brown, M. S., and Goldstein, J. L., Methods in Enzymology, 1995, 255, 38-46; and Garcia, M. A., et al., J. Biol. Chem., 1993, 268,18415-18420.
(§2) Materials—Purified FPTase (Moomaw, J. F. and Casey, P. J., J. Biol. Chem., 1992, 267,17438-17443), purified His6-Ras, inhibitor compounds at 10 mg/ml or 10 mM in 100% DMSO, ^3H-FPP (50,000 dpm/pmol) Amersham, TCA/SDS (6%/2%), TCA (6%), Glass fiber filters ([…]), vacuum manifold or 96 well filtration plates.
(§3) Methods—1. Dilute FPTase inhibitors from stock solutions to 2.5× in 2.5% DMSO, 10 mM DTT, 0.5% octyl-B-glucoside. 2. Solution #1 is added to FPTase reaction in a volume of […]. 3. Standard reaction mix, […], contains 50 mM Tris (7.5),[…], 3 mM MgCl2, 20 mM KCl, 5 mM DTT, 0.2% octyl-B-glucoside, 1% DMSO, […], 10 ng FPTase, and various concentrations of FPTase inhibitors. 4. Incubate for 30-90 min at 25° C. 5. Stop reactions with TCA/SDS (6%/2%), hold at 4° C. for 45-60 min. 6. Filter by manifold or 96 well plate, wash filter 3-5× with TCA (6%). 7. Add scintillant to filters, measure ^3H-FPP incorporation into Ras protein.
(§4) Analysis of Results—Percent inhibition by test compounds is determined by the following:
(§5) (cpm from precipitated Ras with test compounds)−(background cpm)×100=% inhibition.
(§6) (cpm from precipitated Ras without test compounds)−(background cpm)

[2] = target: T1, FPTase; assay: in vitro FTase Inhibition Assay, K-Ras as substrate for farnesylation; assay type: biochemical; settings: K-Ras used as substrate for farnesylation
Procedure: as §1, §2, §3, §4, §5, §6

Structure (SMILES) | IC50 [1] [nM] | IC50 [2] [nM]
CC1(c2ccccc2)OC(CC(SC[C@@H](O)[C@H](O)CS)c2ccsc2)=CC1=O (relative stereo) [Example 1, 5-(2-{[(2S*,3S*)-2,3-Dihydroxy-4-mercaptobutyl]thio}-2-thien-3-ylethyl)-2-methyl-2-phenylfuran-3(2H)-one] | 60 | 100
CC1(c2ccccc2)OC(CC(SC[C@H](O)[C@H](O)CS)c2ccsc2)=CC1=O (relative stereo) [Example 2, 5-(2-[[(2R*,3S*)-2,3-Dihydroxy-4-mercaptobutyl]thio]-2-thien-3-ylethyl)-2methyl-2-phenylfuran-3(2H)-one] | 190 | 
CC1(c2ccccc2)OC(CC(SC[C@@H](O)[C@H](O)CS)c2ccccc2[N+](=O)[O-])=CC1=O (relative stereo) [Example 7, 5-[2-{[(2S*,3S*)-2,3-Dihydroxy-4-mercaptobutyl]thio}-2-(2-nitrophenyl)ethyl]-2-methyl-2-phenylfuran-3(2H)-one] | 320 | 90
CC1(c2ccccc2)OC(CC(SC[C@H](O)[C@@H](O)CS)c2ccsc2)=CC1=O (stereo partly drawn) [Example 3, 5-[2-{[(2R,3R)-2,3-Dihydroxy-4-mercaptobutyl]thio}-2-(3-thienyl)ethyl]-2-methyl-2-phenylfuran-3(2H)-one] | 180 | 
CC1(c2ccc(F)cc2)OC(CC(SC[C@H](O)[C@@H](O)CS)c2ccsc2)=CC1=O (stereo partly drawn) [Example 6, 5-(2-{[(2R,3R)-2,3-Dihydroxy-4-mercaptobutyl]thio}-2-thien-3-ylethyl)-2-(4-fluorophenyl)-2-methylfuran-3(2H)-one] | 120 | 140
CC(C1=CC(=O)C(C)(c2ccccc2)O1)C(SCC(O)C(O)CS)c1ccsc1 (stereo not shown) [Example 8, 5-(2-{[(2S*3S*)-2,3-Dihydroxy-4-mercaptobutyl]thio}-1-methyl-2-thien-3-ylethyl)-2-methyl-2-phenylfuran-3(2H)-one] | 500 | 700
CC1(c2ccccc2)OC(CC(SCC(S)CO)c2ccsc2)=CC1=O (stereo not shown) [Example 14, 5-[2-[(3-Hydroxy-2-mercaptopropyl)thio]-2-(3-thienyl)ethyl]-2-methyl-2-phenylfuran-3(2H)-one] | 7200 | 4500
CC1(c2ccccc2)OC(CC(SCCc2cnccn2)c2ccsc2)=CC1=O (stereo not shown) [Example 17, 2-Methyl-2-phenyl-5-[2-[(2-pyrazin-2-ylethyl)thio]-2-(3-thienyl)ethyl]furan-3(2H)-one] | > 10000 | > 10000
CC1(c2ccc(F)cc2)OC(CC(SCCO)c2ccsc2)=CC1=O (stereo not shown) [Example 19, 2-(4-Fluorophenyl)-5-[2-[(2-hydroxyethyl)thio]-2-(3-thienyl)ethyl]-2-methylfuran-3(2H)-one] | > 10000 | 
CC1(c2ccccc2)OC(CC(SC[C@H](N)C(=O)O)c2ccsc2)=CC1=O (stereo partly drawn) [Example 20, (2R)-2-Amino-3-{[2-(5-methyl-4-oxo-5-phenyl-4,5-dihydrofuran-2-yl)-1-thien-3-ylethyl]thio}propanoic acid] | > 10000 | 

Now from value to molecule:

IC50 [1] [nM] | IC50 [2] [nM] | Structure (SMILES)
1500 | 3700 | CC1(c2ccccc2)OC(CC(SCCCCS)c2ccsc2)=CC1=O (stereo not shown) [Example 9, 5-[2-[(4-Mercaptobutyl)thio]-2-(3-thienyl)ethyl]-2-methyl-2-phenylfuran-3(2H)-one]
5500 | > 10000 | CC1(c2ccccc2)OC(CC(SCCCCO)c2ccsc2)=CC1=O (stereo not shown) [Example 10, 5-[2-[(4-Hydroxybutyl)thio]-2-(3-thienyl)ethyl]-2-methyl-2-phenylfuran-3(2H)-one]
60 | 150 | CC1(c2ccccc2)OC(CC(SCCCS)c2ccsc2)=CC1=O (stereo not shown) [Example 11, 5-[2-[(3-Mercaptopropyl)thio]-2-(3-thienyl)ethyl]-2-methyl-2-phenylfuran-3(2H)-one]
8000 |  | CC1(c2ccccc2)OC(CC(SCCCCCS)c2ccsc2)=CC1=O (stereo not shown) [Example 12, 5-[2-[(5-Mercaptopentyl)thio]-2-(3-thienyl)ethyl]-2-methyl-2-phenylfuran-3(2H)-one]
180 | 1000 | CC1(c2ccccc2)OC(CC(SCCS)c2ccsc2)=CC1=O (stereo not shown) [Example 13, 5-[2-[(2-Mercaptoethyl)thio]-2-(3-thienyl)ethyl]-2-methyl-2-phenylfuran-3(2H)-one]
8300 |  | CC1(c2ccccc2)OC(CC(SCCCO)c2ccsc2)=CC1=O (stereo not shown) [Example 15, 5-[2-[(3-Hydroxypropyl)thio]-2-(3-thienyl)ethyl]-2-methyl-2-phenylfuran-3(2H)-one]
5000 |  | CC1(c2ccccc2)OC(CC(SCC(O)CO)c2ccsc2)=CC1=O (stereo not shown) [Example 16, 5-[2-[(2,3-Dihydroxypropyl)thio]-2-(3-thienyl)ethyl]-2-methyl-2-phenylfuran-3(2H)-one]
550 |  | CC1(c2ccccc2)OC(CC(SCCO)c2ccsc2)=CC1=O (stereo not shown) [Example 18]
